Results on 80 compounds are retold here after the Kinase Knowledgebase extract (Sharma et al. 2016).

For one experiment, the target named is CDK2 (human) (UniProt P24941). Briefly: Enzyme Assay.
Conditions: not given
One may read the Ki as the equilibrium dissociation constant of an inhibitor or competing ligand from its target. The compound `CN(CCN)c1ccc(S(=O)(=O)N2CCC(Nc3nc(N)c(C(=O)c4c(F)cccc4F)s3)CC2)cn1` gave a Ki of 4.9 nM.

Still in this experiment, the particulars now being: concentration not given here.
As usually defined, the inhibition is the relative decrease from the control value, in per cent. For the compound `Nc1nc(NC2CCN(C(=O)CCC(=O)c3ccc(F)cc3)CC2)sc1C(=O)c1c(F)cccc1F`, the inhibition turned out to be 7%.

Take `Cc1ccccc1CCC(=O)N1CCC(Nc2nc(N)c(C(=O)c3c(F)cccc3F)s2)CC1`: the inhibition came to 48%.

On to `COC1CCCC(C(=O)N2CCC(Nc3nc(N)c(C(=O)c4c(F)cccc4F)s3)CC2)C1` (stereo not given), for which the inhibition came out at 63%.

As for `Nc1nc(NC2CCN(C(=O)CNc3ccccc3)CC2)sc1C(=O)c1c(F)cccc1F`, the inhibition worked out at 57%.

In the case of `N#Cc1ccccc1C(=O)N1CCC(Nc2nc(N)c(C(=O)c3c(F)cccc3F)s2)CC1`, the inhibition turned out to be 61%.

As to `CCOc1cccc(/C=C/C(=O)N2CCC(Nc3nc(N)c(C(=O)c4c(F)cccc4F)s3)CC2)c1`, the inhibition was 50%.

Turning to `Nc1nc(NC2CCN(C(=O)CCC3CCCCC3=O)CC2)sc1C(=O)c1c(F)cccc1F` (stereo not given), the inhibition was 50%.

For the compound `CC(C)(O)CC(=O)N1CCC(Nc2nc(N)c(C(=O)c3c(F)cccc3F)s2)CC1`, the inhibition came out at 51%.

Consider `Nc1nc(NC2CCN(C(=O)CN3C(=O)CSC3=S)CC2)sc1C(=O)c1c(F)cccc1F`, for which the inhibition came out at 64%.

On to `Nc1nc(NC2CCN(C(=O)C(O)c3cc(F)cc(F)c3)CC2)sc1C(=O)c1c(F)cccc1F` (stereo not given), for which the inhibition came to 52%.

As for `C[C@H](CC(=O)N1CCC(Nc2nc(N)c(C(=O)c3c(F)cccc3F)s2)CC1)c1ccccc1`, the inhibition worked out at 49%.

Turning to `Nc1nc(NC2CCN(C(=O)[C@@H](O)C3CCCCC3)CC2)sc1C(=O)c1c(F)cccc1F`, the inhibition stood at 51%.

With `Nc1nc(NC2CCN(C(=O)Cc3cccs3)CC2)sc1C(=O)c1c(F)cccc1F`, the inhibition stood at 73%.

On to `Nc1nc(NC2CCN(C(=O)c3ccc4ccccc4c3)CC2)sc1C(=O)c1c(F)cccc1F`, for which the inhibition was 38%.

Take `CSCCC(O)C(=O)N1CCC(Nc2nc(N)c(C(=O)c3c(F)cccc3F)s2)CC1` (stereo not given): the inhibition came out at 65%.

`COc1ccc(CC(=O)N2CCC(Nc3nc(N)c(C(=O)c4c(F)cccc4F)s3)CC2)cc1C`: the inhibition turned out to be 62%.

`CN(C)c1ccc(NC(=O)N2CCC(Nc3nc(N)c(C(=O)c4c(F)cccc4F)s3)CC2)cc1`: the inhibition was determined as 23%.

Take `Nc1nc(NC2CCN(C(=O)CCO)CC2)sc1C(=O)c1c(F)cccc1F`: the inhibition was 39%.

For `Nc1nc(NC2CCN(C(=O)c3ccc4c(c3)C(=O)OC4=O)CC2)sc1C(=O)c1c(F)cccc1F`, the inhibition is 53%.

In the case of `CCCSc1ncccc1C(=O)N1CCC(Nc2nc(N)c(C(=O)c3c(F)cccc3F)s2)CC1`, the inhibition was 44%.

With `CC(=O)N(C)CC(=O)N1CCC(Nc2nc(N)c(C(=O)c3c(F)cccc3F)s2)CC1`, the inhibition was found to be 40%.

Consider `C/C=C/CC(=O)N1CCC(Nc2nc(N)c(C(=O)c3c(F)cccc3F)s2)CC1`, for which the inhibition was 62%.

Consider `Nc1nc(NC2CCN(C(=O)c3cnc4ccccc4n3)CC2)sc1C(=O)c1c(F)cccc1F`, for which the inhibition is 61%.

For `Nc1nc(NC2CCN(C(=O)c3cc(F)c(F)c(F)c3)CC2)sc1C(=O)c1c(F)cccc1F`, the inhibition was 65%.

For the compound `Nc1nc(NC2CCN(C(=O)/C=C/c3cccs3)CC2)sc1C(=O)c1c(F)cccc1F`, the inhibition was 43%.

`Nc1nc(NC2CCN(C(=O)CCC(F)(F)F)CC2)sc1C(=O)c1c(F)cccc1F`: the inhibition was 45%.

On to `Nc1nc(NC2CCN(C(=O)COc3cc(Cl)c(Cl)cc3Cl)CC2)sc1C(=O)c1c(F)cccc1F`, for which the inhibition was -10%.

As for `CCC(C)(O)C(=O)N1CCC(Nc2nc(N)c(C(=O)c3c(F)cccc3F)s2)CC1` (stereo not given), the inhibition came out at 25%.

Regarding `COc1cc(C(=O)N2CCC(Nc3nc(N)c(C(=O)c4c(F)cccc4F)s3)CC2)cc(OC)c1C`, the inhibition worked out at 58%.

As for `Nc1nc(NC2CCN(C(=O)Cc3cc(F)c(F)c(F)c3)CC2)sc1C(=O)c1c(F)cccc1F`, the inhibition was 57%.

In the case of `CCCCOc1ccc(C(C)(C)CC)cc1S(=O)(=O)N1CCC(Nc2nc(N)c(C(=O)c3c(F)cccc3F)s2)CC1`, the inhibition was -30%.

For `CN1CCC[C@H]1C(=O)N1CCC(Nc2nc(N)c(C(=O)c3c(F)cccc3F)s2)CC1`, the inhibition was 39%.

Take `Nc1nc(NC2CCN(C(=O)c3ccc(C=O)o3)CC2)sc1C(=O)c1c(F)cccc1F`: the inhibition is 39%.

Consider `CCCCCCCC(=O)N1CCC(Nc2nc(N)c(C(=O)c3c(F)cccc3F)s2)CC1`, for which the inhibition was determined as 53%.

Take `CC(C(=O)N1CCC(Nc2nc(N)c(C(=O)c3c(F)cccc3F)s2)CC1)c1ccc(Cl)cc1` (stereo not given): the inhibition came out at 48%.

On to `CC1(C)C2CC[C@@]1(CS(=O)(=O)N1CCC(Nc3nc(N)c(C(=O)c4c(F)cccc4F)s3)CC1)C(=O)C2`, for which the inhibition was -34%.

Consider `COc1ccc(C(=O)N2CCC(Nc3nc(N)c(C(=O)c4c(F)cccc4F)s3)CC2)c(OC)n1`, for which the inhibition came out at 51%.

With `Cc1c(F)cccc1C(=O)N1CCC(Nc2nc(N)c(C(=O)c3c(F)cccc3F)s2)CC1`, the inhibition was 36%.

Take `Cc1ccc(C)c(OCC(=O)N2CCC(Nc3nc(N)c(C(=O)c4c(F)cccc4F)s3)CC2)c1`: the inhibition is 26%.

For the compound `CCCC(CC)CC(=O)N1CCC(Nc2nc(N)c(C(=O)c3c(F)cccc3F)s2)CC1` (stereo not given), the inhibition was 31%.

Regarding `Nc1nc(NC2CCN(C(=O)C/C=C/c3ccccc3)CC2)sc1C(=O)c1c(F)cccc1F`, the inhibition came out at 29%.

On to `Nc1nc(NC2CCN(C(=O)c3ccc(F)c(Cl)c3)CC2)sc1C(=O)c1c(F)cccc1F`, for which the inhibition was found to be 48%.

`Nc1nc(NC2CCN(C(=O)COc3ccc(F)cc3)CC2)sc1C(=O)c1c(F)cccc1F`: the inhibition was 83%.

Take `CCCN(CCC)[C@@H](C)C(=O)N1CCC(Nc2nc(N)c(C(=O)c3c(F)cccc3F)s2)CC1`: the inhibition amounted to 6%.

Take `COc1ccc(C(O)C(=O)N2CCC(Nc3nc(N)c(C(=O)c4c(F)cccc4F)s3)CC2)cc1` (stereo not given): the inhibition is 58%.

In the case of `Nc1nc(NC2CCN(C(=O)/C=C/c3ccc(F)c(F)c3)CC2)sc1C(=O)c1c(F)cccc1F`, the inhibition is 61%.

On to `Nc1nc(NC2CCN(C(=O)Cc3ccccn3)CC2)sc1C(=O)c1c(F)cccc1F`, for which the inhibition is 80%.

As to `COc1ccc(C(O)C(=O)N2CCC(Nc3nc(N)c(C(=O)c4c(F)cccc4F)s3)CC2)cc1O` (stereo not given), the inhibition is 58%.

Turning to `COc1ccc(C(=O)N2CCC(Nc3nc(N)c(C(=O)c4c(F)cccc4F)s3)CC2)cc1Cl`, the inhibition turned out to be 47%.

As for `Nc1nc(NC2CCN(C(=O)[C@H](O)C3CCCCC3)CC2)sc1C(=O)c1c(F)cccc1F`, the inhibition amounted to 25%.

Turning to `CCC(C)(O)CC(=O)N1CCC(Nc2nc(N)c(C(=O)c3c(F)cccc3F)s2)CC1` (stereo not given), the inhibition came to 47%.

On to `Nc1nc(NC2CCN(C(=O)[C@@H](O)c3ccccc3)CC2)sc1C(=O)c1c(F)cccc1F`, for which the inhibition worked out at 61%.

In the case of `Nc1nc(NC2CCN(C(=O)Cc3sc(O)nc3O)CC2)sc1C(=O)c1c(F)cccc1F`, the inhibition was determined as 58%.

For the compound `CC(C)C[C@H](O)C(=O)N1CCC(Nc2nc(N)c(C(=O)c3c(F)cccc3F)s2)CC1`, the inhibition turned out to be 70%.

In the case of `CC(CO)(CO)C(=O)N1CCC(Nc2nc(N)c(C(=O)c3c(F)cccc3F)s2)CC1`, the inhibition was 17%.

`CC(=O)OC(C(=O)N1CCC(Nc2nc(N)c(C(=O)c3c(F)cccc3F)s2)CC1)c1ccccc1` (stereo not given): the inhibition was -5%.

For the compound `CC1(C)OC(=O)CC1C(=O)N1CCC(Nc2nc(N)c(C(=O)c3c(F)cccc3F)s2)CC1` (stereo not given), the inhibition came out at 79%.

With `CCC/C=C/CC(=O)N1CCC(Nc2nc(N)c(C(=O)c3c(F)cccc3F)s2)CC1`, the inhibition turned out to be 49%.

As to `CC(C)C(C(=O)N1CCC(Nc2nc(N)c(C(=O)c3c(F)cccc3F)s2)CC1)c1ccccc1` (stereo not given), the inhibition worked out at 29%.

Turning to `Nc1nc(NC2CCN(C(=O)c3ccc4[nH]cnc4c3)CC2)sc1C(=O)c1c(F)cccc1F`, the inhibition stood at 72%.

Turning to `COc1ccc(C(=O)N2CCC(Nc3nc(N)c(C(=O)c4c(F)cccc4F)s3)CC2)cc1OC`, the inhibition is -23%.

For the compound `Nc1nc(NC2CCN(C(=O)/C(F)=C/c3ccccc3)CC2)sc1C(=O)c1c(F)cccc1F`, the inhibition came to 64%.

As to `[N-]=[N+]=C1C=C(S(=O)(=O)N2CCC(Nc3nc(N)c(C(=O)c4c(F)cccc4F)s3)CC2)c2ccccc2C1=O`, the inhibition is -11%.

As to `Nc1nc(NC2CCN(C(=O)CCC(=O)c3cccs3)CC2)sc1C(=O)c1c(F)cccc1F`, the inhibition was determined as 63%.

Consider `COc1c(C)cccc1C(=O)N1CCC(Nc2nc(N)c(C(=O)c3c(F)cccc3F)s2)CC1`, for which the inhibition came out at 10%.

`CC(C)(CO)C(=O)N1CCC(Nc2nc(N)c(C(=O)c3c(F)cccc3F)s2)CC1`: the inhibition was 41%.

Turning to `Nc1nc(NC2CCN(C(=O)CCc3ccc4c(c3)OCO4)CC2)sc1C(=O)c1c(F)cccc1F`, the inhibition was found to be 49%.

For `Nc1nc(NC2CCN(S(=O)(=O)c3ccc(O)c(C(=O)O)c3)CC2)sc1C(=O)c1c(F)cccc1F`, the inhibition is -16%.

For `CC(Oc1ccc(O)cc1)C(=O)N1CCC(Nc2nc(N)c(C(=O)c3c(F)cccc3F)s2)CC1` (stereo not given), the inhibition was 18%.

As for `Nc1nc(NC2CCN(C(=O)c3ccc(F)cc3F)CC2)sc1C(=O)c1c(F)cccc1F`, the inhibition turned out to be 67%.

As for `Nc1nc(NC2CCN(C(=O)C3CCc4ccccc4O3)CC2)sc1C(=O)c1c(F)cccc1F` (stereo not given), the inhibition stood at 6%.

On to `Cc1ccc(/C=C/C(=O)N2CCC(Nc3nc(N)c(C(=O)c4c(F)cccc4F)s3)CC2)cc1C`, for which the inhibition stood at 52%.

As for `Nc1nc(NC2CCN(C(=O)c3ccccc3COC(=O)c3ccccc3)CC2)sc1C(=O)c1c(F)cccc1F`, the inhibition is -9%.

Regarding `CCCC[C@H]1CC[C@H](C(=O)N2CCC(Nc3nc(N)c(C(=O)c4c(F)cccc4F)s3)CC2)CC1`, the inhibition amounted to 45%.

Turning to `Nc1nc(NC2CCN(C(=O)c3ccco3)CC2)sc1C(=O)c1c(F)cccc1F`, the inhibition was determined as 49%.

`Nc1nc(NC2CCN(S(=O)(=O)c3ccc(CNC(=O)c4ccc(O)cc4)s3)CC2)sc1C(=O)c1c(F)cccc1F`: the inhibition is 55%.

Regarding `COCCOCC(=O)N1CCC(Nc2nc(N)c(C(=O)c3c(F)cccc3F)s2)CC1`, the inhibition stood at 73%.

As to `COc1ccc(Cl)cc1C(=O)N1CCC(Nc2nc(N)c(C(=O)c3c(F)cccc3F)s2)CC1`, the inhibition came to 18%.

As for `Cc1ccc(C(=O)/C=C/C(=O)N2CCC(Nc3nc(N)c(C(=O)c4c(F)cccc4F)s3)CC2)cc1`, the inhibition is 78%.
